In patent publication EP2633864A1, “Clip inhibitors and methods of modulating immune function” (The Regents of the University of Colorado, priority 2008, dated 2010):

Experiments:
[1] = test system: mouse splenic B cells; assay: TLR ligand induced ectopic CLIP on mouse splenic B cells in vitro (15G4 anti-CLIP/I-Ab versus B220); type: cell-based; conditions: treatment in vitro; figure 12d
Excerpt: Mouse splenocytes or T-depleted splenocytes were red cell depleted using Geys Solution, and cells were counted. For T-depleted B cell preparations, B cells were separated by discontinuous Percoll (Pharmacia LKB Biotechnology, Piscataway, NJ) gradients (13). Those cells layering at the 1.079/1.085 g/ml interface (1.079 < ρ ≤ 1.085) are designated throughout as resting B cells. Cells layering at the BSS/1.066 g/ml interface (ρ ≤ 1.066) are designated as activated. Viable cells from this latter interface were isolated using Lympholyte-M (Cedarlane Laboratories, Ltd., Hornby, Ontario, Canada). Cells from each layer were harvested, washed, and resuspended at 10^7 cells/ml in PBS containing 5% fetal calf serum.
Total splenocytes, from either B6.129, Ii-deficient, or H2M-deficient mice were cultured with LPS for 24, 48, 72, or 96 hours as indicated. Cells were harvested and stained by two-color fluorescence using 15G4-FITC anti-mouse CLIP/I-A^b versus anti-mouse B220 PE. […]
Freshly isolated splenocytes, single cell suspensions of lymph node cells, resting (or activated) B cells, or primed B cells were isolated from B6.129, Ii-deficient, or H2M-deficient mice and cultured in 24 well plates in complete RPMI medium, with or without the appropriate Toll ligand, at 10^6 cells/ml. […] Cells were stained by two-color fluorescence using 15G4-FITC anti-mouse CLIP/I-A^b versus anti-mouse B220 PE. […]

[2] = test system: B cell surface CLIP; assay: Effect on B cell surface CLIP (Figure 4); type: cell-based

For `CCOCc1nc2c(N)nc3ccccc3c2n1CC(C)(C)O` [R848, imidazoquinoline resiquimod], which “exogenous CLIP expression on the activated mouse B cells” value [1] is on record?
The value was “resulted in exogenous CLIP expression”.

For `OC[C@H]1OC(O)C[C@@H](O)[C@@H]1O` (some centres unmarked) [2-Deoxyglucose, 2-deoxyglucose], which “B cell surface CLIP” value [2] is on record?
The value was “affects B cell surface CLIP”.
